Tests used:
[1] = Experimental log P, shake-flask method; format: physicochemical; conditions: n-octanol/phosphate buffer pH 7.4, read-out: Exp. Log P
Experimental: Partition coefficients or experimental log P values of all synthesized compounds (9–23, 30 and 31) were calculated using the shake-flask method. Log P values were determined using n-octanol and phosphate buffer (pH = 7.4) at 10:1 ratio of volumes. Stock solutions (10^−3 M) of compounds were prepared in DMSO. Glass vials were used to make final solutions i.e. stock solution (250 µL) and phosphate buffer (125 µL). To record the absorbance, wavelength was selected based on λmax of the respective compound. Initial absorbance (Ai) for every compound was noted consuming the stock solution in the buffer phase. Now added n-octanol to every vial and shaken well using a mechanical shaker for 50 minutes. To get separation of both phases, glass vials were centrifuged for 35 min. at 2500 rpm. Then, the layer of octanol was separated from glass vial. The final absorbance (Af) of each compound was recorded by using the buffer layer. The values of P for compounds were determined by the following equation (Eq. 8):8 P=Ai−Af/Af×Vw/Vo

Structure (SMILES) | melting point [°C] | logP [1]
Cc1cccc(-c2cn3ccnc3c(-c3ccc4c(c3)ncn4C3CCCCC3)n2)c1 [Compound 15, 8-(1-cyclohexyl-1H-benzo[d]imidazol-5-yl)-6-(m-tolyl)imidazo[1,2-a]pyrazine] | 183 to 186 | 1.54
CCc1ccc(-c2cn3ccnc3c(-c3ccc4c(c3)ncn4C3CCCCC3)n2)cc1 [Compound 16, 8-(1-cyclohexyl-1H-benzo[d]imidazol-5-yl)-6-(4-ethylphenyl)imidazo[1,2-a]pyrazine] | 182 to 185 | 1.74
CC(=O)c1ccc(-c2cn3ccnc3c(-c3ccc4c(c3)ncn4C3CCCCC3)n2)cc1 [Compound 17, 1-(4-(8-(1-cyclohexyl-1H-benzo[d]imidazol-5-yl)imidazo[1,2-a]pyrazin-6-yl)phenyl)ethan-1-one] | 200 to 203 | 1.41

Source: publication PMC7162861, “Synthesis, cytotoxicity, pharmacokinetic profile, binding with DNA and BSA of new imidazo[1,2-a]pyrazine-benzo[d]imidazol-5-yl hybrids” (Scientific Reports, 2020)
